In patent US20180148418A1, “AMIDO-SUBSTITUTED CYCLOHEXANE DERIVATIVES” (Bayer Pharma Aktiengesellschaft, priority 2015, published 2018):

Tests used:
TNKS1 = target: T1, TNKS1 (Homo sapiens, UniProt O95271); assay: TNKS1 Assay B (auto-parsylation, [3H]-NAD+ SPA); format: biochemical; conditions: 6 nM TNKS1, auto-parsylation, over night at room temperature
T1 construct: purchased BPS Bioscience, San Diego, USA 80579 (TNKS1 Histone Ribosylation Assay Kit)
T1 sequence (O95271 1-1327): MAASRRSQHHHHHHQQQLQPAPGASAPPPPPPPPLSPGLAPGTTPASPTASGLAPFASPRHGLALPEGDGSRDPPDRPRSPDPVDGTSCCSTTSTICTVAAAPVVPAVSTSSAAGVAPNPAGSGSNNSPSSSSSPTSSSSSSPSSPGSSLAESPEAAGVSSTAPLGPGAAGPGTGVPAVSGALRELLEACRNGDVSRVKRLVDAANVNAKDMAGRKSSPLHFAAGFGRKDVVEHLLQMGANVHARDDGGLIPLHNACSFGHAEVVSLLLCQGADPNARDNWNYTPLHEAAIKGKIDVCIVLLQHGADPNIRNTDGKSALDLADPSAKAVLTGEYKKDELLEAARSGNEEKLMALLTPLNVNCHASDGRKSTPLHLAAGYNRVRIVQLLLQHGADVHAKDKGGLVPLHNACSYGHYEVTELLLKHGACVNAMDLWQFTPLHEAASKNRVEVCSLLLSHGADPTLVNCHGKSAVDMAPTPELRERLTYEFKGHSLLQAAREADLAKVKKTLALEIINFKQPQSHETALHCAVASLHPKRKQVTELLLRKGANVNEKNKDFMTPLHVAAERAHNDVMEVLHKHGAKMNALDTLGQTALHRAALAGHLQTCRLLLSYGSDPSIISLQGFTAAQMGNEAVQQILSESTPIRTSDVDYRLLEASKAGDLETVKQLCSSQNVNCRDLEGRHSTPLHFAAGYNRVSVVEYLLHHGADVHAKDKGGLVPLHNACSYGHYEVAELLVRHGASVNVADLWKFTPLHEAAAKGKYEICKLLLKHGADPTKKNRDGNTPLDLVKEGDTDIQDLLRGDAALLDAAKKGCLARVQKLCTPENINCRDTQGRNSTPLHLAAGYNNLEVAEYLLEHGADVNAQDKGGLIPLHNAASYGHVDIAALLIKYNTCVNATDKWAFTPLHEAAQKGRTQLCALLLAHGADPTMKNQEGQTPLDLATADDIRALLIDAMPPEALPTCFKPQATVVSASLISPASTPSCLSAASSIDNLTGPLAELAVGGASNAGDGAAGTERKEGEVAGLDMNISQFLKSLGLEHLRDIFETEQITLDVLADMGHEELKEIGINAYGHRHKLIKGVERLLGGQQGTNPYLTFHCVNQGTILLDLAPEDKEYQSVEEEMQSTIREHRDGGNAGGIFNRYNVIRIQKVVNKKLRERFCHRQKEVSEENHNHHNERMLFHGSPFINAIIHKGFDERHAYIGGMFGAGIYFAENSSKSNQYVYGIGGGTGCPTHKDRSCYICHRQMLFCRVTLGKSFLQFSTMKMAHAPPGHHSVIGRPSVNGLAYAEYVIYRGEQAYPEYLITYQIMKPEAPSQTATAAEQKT

[1] = system: wildtype Wnt signaling cascade; assay: HEK293 TOP assay (Super TopFlash luciferase reporter, Wnt-3a stimulated); format: cell-based; conditions: Homo sapiens, HEK293, 16 h, HEK293 TOP reporter cells, Wnt3a at EC50, 16 hours
How it was run: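 Compound series (50 μM down to 15 nM, 3.16-fold) diluted from DMSO 50-fold into CAFTY buffer, pH 7.4, 2 mM Ca^2+, 0.01% BSA, applied to Wnt-3a-stimulated HEK293 TopFlash and FOP reporter lines in parallel. Cells seeded 10000/well 24 h before; luciferase signal measured.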

| SMILES | IC50 (TNKS1) | IC50 [1] |
| --- | --- | --- |
| CN(C)c1ccn2ncc(C(=O)N[C@H]3CC[C@@]4(CCN(c5ccc(F)cc5Cl)C4=O)CC3)c2n1 [Example 217, N-[(trans)-2-(2-chloro-4-fluorophenyl)-1-oxo-2-azaspiro[4.5]dec-8-yl]-5-(dimethylamino)pyrazolo[1,5-a]pyrimidine-3-carboxamide] | 6.1 nM | 3.7 nM |
| CCNC(=O)c1nc[nH]c1C(=O)N[C@H]1CC[C@@]2(CCN(c3cccc(Cl)c3)C2=O)CC1 [Example 277, N^5-[(trans)-2-(3-chlorophenyl)-1-oxo-2-azaspiro[4.5]dec-8-yl]-N^4-ethyl-1H-imidazole-4,5-dicarboxamide] | 260 nM | 40 nM |
| Cc1cc(C)n2ncc(C(=O)N[C@H]3CC[C@@]4(CCN(c5ccc(F)cc5)C4=O)CC3)c2n1 [Example 211, N-[(trans)-2-(4-fluorophenyl)-1-oxo-2-azaspiro[4.5]dec-8-yl]-5,7-di methyl pyrazolo[1,5-a]pyrimidine-3-carboxamide] | 430 nM | 270 nM |
| CC(C)(C)OC(=O)N1CCN(c2ccn3ncc(C(=O)N[C@H]4CC[C@@]5(CCN(c6ccc(F)cc6Cl)C5=O)CC4)c3n2)CC1 [Example 225, tert-butyl 4-(3-{[(trans)-2-(2-chloro-4-fluorophenyl)-1-oxo-2-azaspiro[4.5]dec-8-yl]carbamoyl}pyrazolo[1,5-a]pyrimidin-5-yl)piperazine-1-carboxylate] | 6 nM | 59 nM |
| CNc1ccn2ncc(C(=O)N[C@H]3CC[C@@]4(CCN(c5ccc(F)cc5Cl)C4=O)CC3)c2n1 [Example 215, N-[(trans)-2-(2-chloro-4-fluorophenyl)-1-oxo-2-azaspiro[4.5]dec-8-yl]-5-(methylamino)pyrazolo[1,5-a]pyrimidine-3-carboxamide] | 7.5 nM | 5.5 nM |
| Cc1ccn2ncc(C(=O)N[C@H]3CC[C@@]4(CCN(c5ccc(F)cc5Cl)C4=O)CC3)c2n1 [Example 221, N-[(trans)-2-(2-chloro-4-fluorophenyl)-1-oxo-2-azaspiro[4.5]dec-8-yl]-5-methylpyrazolo[1,5-a]pyrimidine-3-carboxamide] | 11 nM | 1.5 nM |
| O=C(N[C@H]1CC[C@@]2(CCN(c3cccc(Cl)c3)C2=O)CC1)c1cnc2cccnn12 [Example 269, N-[(trans)-2-(3-chlorophenyl)-1-oxo-2-azaspiro[4.5]dec-8-yl]imidazo[1,2-b]pyridazine-3-carboxamide] | 800 nM | 65 nM |
| Cc1ccnc2c(C(=O)N[C@H]3CC[C@@]4(CCN(c5ccc(F)cc5Cl)C4=O)CC3)cnn12 [Example 222, N-[(trans)-2-(2-chloro-4-fluorophenyl)-1-oxo-2-azaspiro[4.5]dec-8-yl]-7-methylpyrazolo[1,5-a]pyrimidine-3-carboxamide] | 13 nM | 2.1 nM |
| O=C(N[C@H]1CC[C@@]2(CCN(c3ccc(F)cc3Cl)C2=O)CC1)c1cnn2c(C(F)(F)F)ccnc12 [Example 233, N-[(trans)-2-(2-chloro-4-fluorophenyl)-1-oxo-2-azaspiro[4.5]dec-8-yl]-7-(trifluoromethyl)pyrazolo[1,5-a]pyrimidine-3-carboxamide] | 71 nM | 9 nM |

Further lines, results first:

| IC50 (TNKS1) | IC50 [1] | SMILES |
| --- | --- | --- |
| 180 nM | 27 nM | CNC(=O)c1nc[nH]c1C(=O)N[C@H]1CC[C@@]2(CCN(c3cccc(Cl)c3)C2=O)CC1 [Example 276, N^5-[(trans)-2-(3-chlorophenyl)-1-oxo-2-azaspiro[4.5]dec-8-yl]-N^4-methyl-1H-imidazole-4,5-dicarboxamide] |
| 980 nM | 410 nM | CNC(=O)c1nc[nH]c1C(=O)N[C@H]1CC[C@H](C(=O)N(C)c2ccc(F)cc2)CC1 [Example 172, N^5-{trans-4-[(4-fluorophenyl)(methyl)carbamoyl]cyclohexyl}-N^4-methyl-1H-imidazole-4,5-dicarboxamide] |
| 52 nM | 71 nM | CCNC(=O)c1nc[nH]c1C(=O)N[C@H]1CC[C@H](C(=O)Nc2ccc(F)cc2Cl)CC1 [Example 15, N^5-{trans-4-[(2-chloro-4-fluorophenyl)carbamoyl]cyclohexyl}-N^4-ethyl-1H-imidazole-4,5-dicarboxamide] |
| 200 nM | 190 nM | CNC(=O)c1nc[nH]c1C(=O)N[C@H]1CC[C@H](C(=O)N(C)c2ccc(F)cc2Cl)CC1 [Example 173, N^5-{trans-4-[(2-chloro-4-fluorophenyl)(methyl)carbamoyl]cyclohexyl}-N^4-methyl-1H-imidazole-4,5-dicarboxamide] |
| 2400 nM | 2000 nM | CNC(=O)c1nc[nH]c1C(=O)N[C@H]1CC[C@H](C(=O)Nc2cc(C(C)(C)O)ccc2Cl)CC1 [Example 170, N^5-(trans-4-{[2-chloro-5-(2-hydroxypropan-2-yl)phenyl]carbamoyl}cyclohexyl)-N^4-methyl-1H-imidazole-4,5-dicarboxamide] |
